The target of assay [1] is Amyloid-beta precursor protein (Homo sapiens, UniProt P05067). Description: Inhibition of amyloid beta (1 to 42) (unknown origin) aggregation.
In a further assay the test system is Erythrocyte. As to the kind of experiment: Antiinflammatory activity in human erythrocytes assessed as inhibition of hypotonic solution-induced haemolysis after 10 mins by spectrophotometric analysis. It counts as functional, cell-based.
Assay [2] can be described thus: Anti glycation activity assessed as inhibition of BSA glycation after 7 days in presence of glucose by spectrofluorimetry assay. It counts as functional.
A further assay has as its target Alpha glucosidase (Homo sapiens, UniProt O43451+P10253+P14410+Q2M2H8). Description: Inhibition of alpha-glucosidase (unknown origin) using p-nitrophenyl-a-d-glucopyranoside as substrate preincubated for 5 mins followed by substrate addition measured after 5 mins by spectrophotometric analysis. It counts as protein assay.
Assay [3] is described as follows: Inhibition of porcine pancreatic alpha-amlyase after 10 mins. Also noted: species or system Sus scrofa.
A short description of assay [4]: Antioxidant activity assessed as DPPH radical scavenging activity after 30 mins. Format: functional.

The structures appear in SMILES notation.

Sequence of Amyloid-beta precursor protein (P05067 whole entry): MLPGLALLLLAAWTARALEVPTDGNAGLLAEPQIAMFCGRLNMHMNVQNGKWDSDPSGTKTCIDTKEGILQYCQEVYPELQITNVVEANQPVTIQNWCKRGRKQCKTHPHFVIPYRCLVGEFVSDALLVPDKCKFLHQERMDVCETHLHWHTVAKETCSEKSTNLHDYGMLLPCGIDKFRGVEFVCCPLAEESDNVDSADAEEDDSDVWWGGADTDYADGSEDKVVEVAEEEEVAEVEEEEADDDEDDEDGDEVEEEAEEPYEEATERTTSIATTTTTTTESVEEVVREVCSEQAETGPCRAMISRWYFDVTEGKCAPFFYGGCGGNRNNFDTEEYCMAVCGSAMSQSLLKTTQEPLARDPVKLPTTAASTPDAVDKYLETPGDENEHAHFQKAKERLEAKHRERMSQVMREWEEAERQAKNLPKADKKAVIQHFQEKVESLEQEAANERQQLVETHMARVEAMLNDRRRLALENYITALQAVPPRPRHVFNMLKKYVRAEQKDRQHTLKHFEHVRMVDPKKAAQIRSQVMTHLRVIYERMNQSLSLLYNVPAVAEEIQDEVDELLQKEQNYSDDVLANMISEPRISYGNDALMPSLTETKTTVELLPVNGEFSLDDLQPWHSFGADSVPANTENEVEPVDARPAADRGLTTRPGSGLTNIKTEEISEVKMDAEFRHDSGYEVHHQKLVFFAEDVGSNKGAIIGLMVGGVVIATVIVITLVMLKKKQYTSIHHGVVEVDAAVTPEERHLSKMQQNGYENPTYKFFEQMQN

On to `O=c1c2c(F)cccc2[se]n1-c1cc(Cl)c(O)c2ncccc12`, for which the concentration for half-maximal inhibition (IC50) in assay [1] was 9.6 µM.
As for `CCCc1nc(C(C)(C)O)c(C(=O)N/N=C/c2ccc(Cl)cc2Cl)[nH]1`, in the assay with Erythrocyte, the IC50 is 46 µM.
As for `Oc1ccc(-c2nc3ncc(Cl)cc3[nH]2)c(O)c1`, in assay [2], the IC50 was found to be 240 µM.
At Alpha glucosidase, `Clc1ccc(-c2nnc(/N=C/c3ccc(Cl)cc3Cl)s2)cc1` had an IC50 of 4.7 µM.
Regarding `O=C(NNC(=S)Nc1ccc(F)cc1)c1cc2cc(Cl)cnc2[nH]1`, in assay [3], the concentration for half-maximal inhibition (IC50) stood at 2.03 µM.
`O=C(NNC(=S)Nc1ccccc1Cl)c1cc2cc(Cl)ccc2[nH]1` displayed a concentration for half-maximal inhibition (IC50) in assay [3] of 2.1 µM.
With `Oc1ccc(O)c(-c2nc3ncc(Cl)cc3[nH]2)c1`, the IC50 in assay [4] was found to be 72.5 µM.

As usually defined, the IC50 is the midpoint of a concentration-inhibition curve.

The values above are taken from ChEMBL document CHEMBL4346708, “Synthetic approaches and pharmaceutical applications of chloro-containing molecules for drug discovery: A critical review” (Eur J Med Chem, 2019).
